ChEMBL document CHEMBL1150896, “Arenarins A-C: new cytotoxic fungal metabolites from the sclerotia of aspergillus arenarius” (1998)
In brackets after ≈: the same amount, converted by molar mass.

Legend:
Format in all cases: functional
[1] = Cytotoxicity against human NCI60 cells
[2] = tested on: Carpophilus; test: Reduction of feeding rate in adult Carpophilus hemipterus at 100 ppm dietary level relative to control; set-up: scale not given: the % may be the effect or the level left
[3] = tested on: Carpophilus; test: Reduction of feeding rate in Carpophilus hemipterus larvae at 100 ppm dietary level relative to control; set-up: scale not given: the % may be the effect or the level left

| Structure (SMILES) | GI50 [1] [µg/mL] | Activity [2] [%] | Activity [3] [%] |
| --- | --- | --- | --- |
| COc1c(-c2ccc(O)cc2)c(O)cc2c1oc1cc(O)c(OCC=C(C)C)cc12 [ARENARIN A] | 4.8 (≈ 11.8 µM) | 13 | 13 |
| C=C(C)C1Cc2c(ccc(O)c2OC/C=C(\C)CO)C2=C1C(=O)C(c1ccc(O)cc1)=C(OC)C2=O (stereo unspecified) [ARENARIN B] | 3.8 (≈ 7.78 µM) | 20 |  |
| C=C(C)C1Cc2c(ccc(OC)c2OC/C=C(\C)CO)C2=C1C(=O)C(c1ccc(O)cc1)=C(OC)C2=O (stereo unspecified) [ARENARIN C] |  | 13 |  |
